Experimental data: patent US20230050846A1, “TREATMENT OF HEPATIC AND CARDIOVASCULAR DISORDERS” (LIFESEARCH, priority 2019, published 2023)
Peptide text beside a SMILES is read from it. * marks the point of attachment. Palmitoyl = CCCCCCCCCCCCCCCC(=O)*

Key:
human F1Fo-ATPase [1] = target: T1, human F1Fo-ATPase (Homo sapiens, UniProt P06576); assay: Surface plasmon resonance (SPR) binding to purified human F1Fo-ATPase; settings: SPR single-cycle kinetics; His-tag / biotin variant of peptide immobilized, F1Fo-ATPase as analyte; read-out: KD (affinity between F1Fo-ATPase and immobilized peptide)
T1 construct: Human F1Fo-ATPase was purified from HepG2 cells by immunocapture; endogenous in cells; host or cells: HepG2 cells; complex isolated by immunocapture with anti-ATP synthase antibody 12F4AD8AF8 (#ab109867, Abcam)
Method: Surface plasmon resonance (SPR) assays. Binding studies based on SPR technology were performed on a BIAcore T200 optical biosensor instrument (GE Healthcare®, Uppsala, Sweden). The peptide of formula (I) with C-terminal 6×His-tag (Formula (I)-His-tag: CH3CO-[SEQ ID NO: 1]-HHHHHH) and the peptide of formula (II) with C-terminal biotin (Formula (II)-Biotin: CH3CO-[SEQ ID NO: 1]-K-[palmitoyl]-AEEAc-K-[biotinyl]-NH2) were custom-synthesized by BACHEM AG (Bubendorf, Switzerland) with >90% purity in trifluoroacetate salt. Human F1Fo-ATPase was purified from HepG2 cells by immunocapture using mouse monoclonal anti-ATP synthase antibody (12F4AD8AF8, #ab109867, Abcam) according to manufacturer's instructions.
Immobilization of the peptide of formula (I)-6His-tag was performed on a nitrilotriacetic acid (NTA) sensorchip in HBS-P+ buffer (10 mM Hepes pH 7.4, 150 mM NaCl, and 0.05% surfactant P20) (GE Healthcare). To saturate the NTA surface with Ni2^+, flow cells (Fc) were loaded with 0.5 mM NiCl2 solution. The channel Fc1 was left empty and used as a reference surface for nonspecific binding measurements. Formula (I)-6×His was injected in the channel Fc2 at a flow-rate of 5 μL/min and stabilized by amine coupling (Laboratory guideline 29-0057-17 AB). The total amount of immobilized Formula (I)-His-tag was 300-350 resonance units (RU): final concentration 25 μg/mL. […]

human F1Fo-ATPase [2] = target: T1, human F1Fo-ATPase; assay: F1-ATPase activity assay (NADH-coupled, purified enzyme); assay type: biochemical; settings: 1 μM
Source text: The mature human IF1 protein (SEQ ID NO: 5) was chemically synthesized by GenScript (Piscataway, N.J., USA) at >80% purity. The peptides derived from the mature human IF1 sequence (IF1-1-60, IF1-10-56, IF1-10-47) were produced by BachemAG (Bubendorf, Switzerland) with >90% purity.
Human F1Fo-ATPase was purified from HepG2 cells by immunocapture using mouse monoclonal anti-ATP synthase antibody (12F4AD8AF8, #ab109867, Abcam) according to manufacturer's instructions.
Measurement of F1-ATPase activity was assayed as previously described. Briefly, 10 μg of F1Fo-ATPase was prepared into 50 μL of activity assay buffer (10 mM HEPES, 150 mM NaCl, 5 mM KCl, 5 mM MgCl2, 0.5 mM phosphoenolpyruvate, 250 μM NADH, 100 μM ATP, 20 U lactate dehydrogenase, 120 U pyruvate kinase). The mixture was incubated at 37° C. for 30 min. Then the F1-ATPase activity was measured in a 96-well microplate by adding 5 μL of the mixture (1 μg of F1Fo-ATPase per point) per well to 200 μL of activity assay buffer at 37° C., and by adding 5 μL of buffer with or without peptide (1 μM each). The reduction in the absorbance of NADH was measured at 340 nm for 5 min with a Varioskan™ Flash Multimode Reader (Thermo Fisher Scientific). A slope was calculated for each well and the results expressed as a percentage of the control slope.

[3] = target: T2, ecto-F1-ATPase (HepG2 cells) (Homo sapiens, UniProt P06576); assay: ecto-F1-ATPase activity: extracellular ADP content, luciferin-luciferase assay; assay type: cell-based; settings: HepG2, 5 min; for extracellular ADP concentration (ecto-F1-ATPase hydrolytic activity): peptide 0.1 to 5 μM (formula (I)) or 1 μM, effect blunted by IF1 1 μM
T2 construct: host or cells: HepG2
Method: The human hepatocyte cell line HepG2 was obtained from the American Type Culture Collection (#HB-8065). HepG2 were cultured in Dulbecco's Modified Eagle's Medium (DMEM)—high glucose (D0822, Sigma-Aldrich) supplemented with 10% fetal bovine serum (10270098, Life technologies), 1% Penicillin-Streptomycin solution (P0781, Sigma-Aldrich). HepG2 cells were seeded on 24-well plates at 75,000 cells/well (Day 0). After 24 hours of growing, cells were serum starved for 24 h in order to synchronize cell cycles (Day 1) and then replaced additional 24 h in complete cell growth medium (Day 2). On day 3, cells were washed and equilibrated in fresh DMEM—high glucose without red phenol for 1 h (D1145, Sigma-Aldrich).
The cells were then treated 5 min with different concentration of peptide of formula (I) (0.1 to 5 μM), the peptide of formula (II) (1 μM), SCR (1 μM), SCR-K-16 (1 μM) or apoA-I (10 μg/mL) purified from human plasma.
Specific ecto-F1-ATPase activation was assessed in the presence of IF1 protein (1 μM), a natural inhibitor of F1-ATPase that interacts with the β-subunit to inhibit the ATP hydrolysis activity [5].
Supernatants were then collected and centrifuged (10,000 g, 5 min, 4° C.) and processed for ADP and ATP measurement. For ADP measurement, ADP was converted into ATP in 150 mM NaCl, 5 mM KCl, 2 mM MgCl2, pH 7.5 buffer containing 0.5 mM phosphoenolpyruvate (PEP) and pyruvate kinase (PK, 6 U per point for 15 min at 37° C.). For ATP measurement, 100 μl of sample was analyzed using the ATP bioluminescence assay kit CLS II (Roche Diagnostics). Samples were added to the ATP assay mixture and luminescence was measured in a microplate reader Infinite F500 (Tecan, Switzerland) for 1000 ms. The ATP standard curve was produced in the same medium as the samples and in the 10^−5 to 10^−10 M concentration range. The ADP concentration was then calculated as the ATP concentration following ADP conversion minus the basal ATP concentration. Data are expressed as nanomoles of ADP produced.

Kd (human F1Fo-ATPase [1]) | stimulation of F1-ATPase activity (human F1Fo-ATPase [2]) | concentration at which maximum efficacy on extracellular ADP is reached [3] | extracellular ADP concentration (ecto-F1-ATPase hydrolytic activity) [3] | Molecule
19 nM | 36% | 1 µM | increased | Ac-RGAGSIREAGGAFGKREQAEEERYFRAQSRE-NH2 [peptide of formula (I), CH3CO-[SEQ ID NO: 1]-NH2]
4.45 nM | 43% |  | stimulated | CCCCCCCCCCCCCCCC(=O)NCCCC[C@H](NC(=O)[C@H](CCC(=O)O)NC(=O)[C@H](CCCNC(=N)N)NC(=O)[C@H](CO)NC(=O)[C@H](CCC(N)=O)NC(=O)[C@H](C)NC(=O)[C@H](CCCNC(=N)N)NC(=O)[C@H](Cc1ccccc1)NC(=O)[C@H](Cc1ccc(O)cc1)NC(=O)[C@H](CCCNC(=N)N)NC(=O)[C@H](CCC(=O)O)NC(=O)[C@H](CCC(=O)O)NC(=O)[C@H](CCC(=O)O)NC(=O)[C@H](C)NC(=O)[C@H](CCC(N)=O)NC(=O)[C@H](CCC(=O)O)NC(=O)[C@H](CCCNC(=N)N)NC(=O)[C@H](CCCCN)NC(=O)CNC(=O)[C@H](Cc1ccccc1)NC(=O)[C@H](C)NC(=O)CNC(=O)CNC(=O)[C@H](C)NC(=O)[C@H](CCC(=O)O)NC(=O)[C@H](CCCNC(=N)N)NC(=O)[C@@H](NC(=O)[C@H](CO)NC(=O)CNC(=O)[C@H](C)NC(=O)CNC(=O)[C@H](CCCNC(=N)N)NC(C)=O)[C@@H](C)CC)C(N)=O [peptide of formula (II), CH3CO-[SEQ ID NO: 1]-K-[palmitoyl]-NH2] (Ac-RGAGSIREAGGAFGKREQAEEERYFRAQSREK(Palmitoyl)-NH2)
